Starred links: 1 amine or outer side, 2 acyl side, 3 side chain; linkers in the order of their positions; H or OH if unused. Non-standard residues stand in square brackets, D forms with d. Residues, ends and D or L forms follow the SMILES beside them. Groups on a side chain read outwards from the residue. *: point of attachment. C18 diacid = O=C(O)CCCCCCCCCCCCCCCCC(=O)*; γGlu = O=C(O)[C@H](CCC(=O)[*:2])N[*:1]; AEEA = NCCOCCOCC(=O)O; Aib = CC(C)(N)C(=O)O
Columns and labels:
[1] = target: T1, human GLP-1 receptor (Homo sapiens, UniProt P43220); experiment: Assay (II)(a) GLP-1 receptor binding, 125I-GLP-1 displacement SPA on BHK membranes; conditions: without presence of serum albumin; read-out: GLP-1R IC50 (nM) [Assay (II)(a)]
T1 construct: expressed in transfected cells; host or cells: membranes of BHK cells (parent BHKTS13), clone FCW467-12A
T1 sequence (P43220 24-463): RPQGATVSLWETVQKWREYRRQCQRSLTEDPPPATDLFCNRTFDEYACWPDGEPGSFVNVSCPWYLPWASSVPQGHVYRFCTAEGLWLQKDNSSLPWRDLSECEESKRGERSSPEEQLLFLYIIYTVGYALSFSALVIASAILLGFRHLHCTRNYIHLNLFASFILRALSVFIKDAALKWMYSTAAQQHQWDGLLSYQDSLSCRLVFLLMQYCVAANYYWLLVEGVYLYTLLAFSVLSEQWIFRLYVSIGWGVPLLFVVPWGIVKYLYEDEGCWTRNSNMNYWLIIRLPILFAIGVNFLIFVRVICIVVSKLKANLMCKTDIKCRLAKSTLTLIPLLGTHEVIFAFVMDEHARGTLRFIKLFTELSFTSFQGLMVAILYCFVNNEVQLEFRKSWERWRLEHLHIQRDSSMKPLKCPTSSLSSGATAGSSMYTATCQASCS
Experimental: The GLP-1 receptor (GLP-1R) binding is a measure of affinity of a compound for the human GLP-1 receptor. The receptor binding of each compound to the human GLP-1 receptor was measured in a displacement binding assay. In this type of assay a labelled ligand (in this case 125I-GLP-1) is bound to the receptor. Each derivative was added in a series of concentrations to isolated membranes containing the human GLP-1 receptor and displacement of the labelled ligand was monitored. The receptor binding was reported as the concentration at which half of the labelled ligand was displaced from the receptor, the IC50 value. In order to test the binding of the derivatives to albumin, the assay may be performed in a very low concentration of serum albumin (max. 0.001% final assay concentration) as well as in the presence of a (considerably) higher concentration of serum albumin (2.0% final assay concentration). An increase of the IC50 value, in the presence of serum albumin indicates an affinity to serum albumin and represents a method to predict a protracted pharmacokinetic profile of the test substance in animal models. The following chemicals were used in the assay: DMEM w/o phenol red (Gibco 11880-028), Pen/strep (Invitrogen 15140-122), G418 (Invitrogen 10131-027), 1 M Hepes (Gibco 15630), EDTA (Invitrogen 15575-038), PBS (Invitrogen 14190-094), fetal calf serum (Invitrogen 16140-071), EGTA, MgCl2 (Merck 1.05832.1000), Tween 20 (Amresco 0850C335), SPA particles (wheat germ agglutinin (WGA) SPA beads, Perkin Elmer RPNQ0001), [125I]-GLP-1]-(7-36)NH2 (produced in-house), OptiPlate™-96 (Perkin Elmer). Buffer 1 consisted of 20 mM Na-HEPES plus 10 mM EDTA and pH was adjusted to 7.4. Buffer 2 consisted of 20 mM Na-HEPES plus 0.1 mM EDTA and pH was adjusted to 7.4. Assay buffer consisted of 50 mM HEPES supplemented with 5 mM EGTA, 5 mM MgCl2, 0.005% Tween 20 and pH was adjusted to 7.4. The cells used in this assay (clone FCW467-12A) were BHK cells with BHKTS13 as a parent cell line. The cells express the human GLP-1 receptor. The cells were grown at 5% CO2 in DMEM, 10% fetal calf serum, 1% Pen/Strep (Penicillin/Streptomycin) and 1.0 mg/ml of the selection marker G418. To make a membrane preparation the cells were grown to approximately 80% confluence. The cells were washed twice in phosphate-buffered saline and harvested. The cells were pelleted using a brief centrifugation and the cell pellet was kept on ice. The cell pellet was homogenised with ULTRA-THURRAX dispersing instrument for 20-30 seconds in a suitable amount of buffer 1 (e.g., 10 ml). The homogenate was centrifuged for 15 minutes. The pellet was re-suspended (homogenised) in 10 ml buffer 2 and centrifuged. This step was repeated once more. The resulting pellet was re-suspended in buffer 2 and the protein concentration was determined. The membranes were aliquoted and stored at minus 80° C. • 1. For the receptor binding assay, 50 μl of the assay buffer was added to each well of an assay plate. • 2. Test compounds were serially diluted to give the following concentrations: 8×10EE-7 M, 8×10EE-8 M, 8×10EE-9 M, 8×10EE-10 M, 8×10EE-11 M, 8×10EE-12 M and 8×10EE-13 M. Twenty-five μl were added to appropriate wells in the assay plate. • 3. Cell membrane aliquots were thawed and diluted to their working concentration. Fifty μl were added to each well in the assay plate. • 4. WGA SPA beads were suspended in assay buffer at 20 mg/ml. The suspension was diluted to 10 mg/ml in assay buffer just prior to addition to the assay plate. Fifty μl were added to each well in the assay plate. • 5. The incubation was started by adding 25 μl of […] solution of [125I]-GLP-1]-(7-36)NH2 to each well of the assay plate. A 25 μl aliquot was reserved for measuring total counts/well. • 6. The assay plate was incubated for 2 h at 30° C. • 7. The assay plate was centrifuged for 10 min. • 8. The assay plate was read in a Perkin Elmer TopCount NXT instrument. […]

[2] = target: T1, human GLP-1 receptor; experiment: Assay (I)(a) GLP-1 receptor activation, CRE luciferase reporter gene assay in BHK cells; assay type: cell-based; conditions: without presence of serum albumin; read-out: GLP-1R EC50 (pM) [Assay (I)(a)]
Experimental: The purpose of this example was to test the activity or potency, of the glucagon derivatives of the invention, in vitro. The in vitro potency is the measure of human GLP-1 receptor (GLP-1R) or glucagon receptor (glucagonR) activation, respectively, in a whole cell assay. In vitro potency was determined by measuring the response of human GLP-1 or glucagon receptor, respectively, in a reporter gene assay. The assay was performed in a stably transfected BHK cell line that expresses either the human GLP-1 receptor or the human glucagon receptor and contains the DNA for the cAMP response element (CRE) coupled to a promoter and the gene for firefly luciferase (CRE luciferase). […] When assay incubation was completed, the luciferase substrate (luciferin) was added and the enzyme converted luciferin to oxyluciferin and produces bioluminescence. The luminescence was measured as the readout for the assay. The cells used in this assay (clone FCW467-12A/KZ10-1) were BHK cells with BHKTS13 as a parent cell line. The cells were derived from a clone (FCW467-12A) that expresses the human GLP-1 receptor and were established by further transfection with CRE luciferase to obtain the current clone. The cells were cultured at 5% CO2 in DMEM medium with 10% FBS, 1×GlutaMAX, 1 mg/ml G418, 240 nM MTX (methotrexate) and 1% pen/strep (penicillin/streptomycin). They were aliquoted and stored in liquid nitrogen. Before each assay, an aliquot was taken up and washed three times in PBS before being suspended at the desired concentration in assay medium. For 96-well plates the suspension was made to give a final concentration of 5×10EE3 cells/well. The following chemicals were used in the assay: Pluronic F-68 (10%) (Gibco 2404), ovalbumin (Sigma A5503), DMEM w/o phenol red (Gibco 11880-028), 1 M Hepes (Gibco 15630), Glutamax 100× (Gibco 35050) and steadylite plus (PerkinElmer 6016757). Assay Medium consisted of DMEM w/o phenol red, 10 mM Hepes, 1× GlutaMAX, 2% Ovalbumin and 0.2% Pluronic F-68. Cell stocks were thawed in a 37° C. water bath. Cells were washed three times in PBS. The cells were counted and adjusted to 5×10EE3 cells/50 μl (1×10EE5 cells/ml) in Assay Medium. A 50 μl aliquot of cells was transferred to each well in the assay plate. Stocks of the test compounds and reference compounds were diluted to a concentration of […] in Assay Medium. Compounds were diluted 10-fold to give the following concentrations: 2×10EE-6 M, 2×10EE-7 M, 2×10EE-8 M; 2×10EE-9 M, 2×10EE-10 M, 2×10EE-11 M, 2×10EE-12 M and 2×10EE-13 M. For each compound a blank assay medium control was also included. A 50 μl aliquot of compound or blank was transferred from the dilution plate to the assay plate. Compounds were tested at the following final concentrations: 1×10EE-6 M, 1×10EE-7 M, 1×10EE-8 M; 1×10EE-9 M, 1×10EE-10 M, 1×10EE-11 M and 1×10EE-12 M and 1×10EE-13 M. The assay plate was incubated for 3 h in a 5% CO2 incubator at 37° C. The assay plate was removed from the incubator and allowed to stand at room temperature for 15 min. A 100 μl aliquot of steadylite plus reagent was added to each well of the assay plate (reagent is light sensitive). Each assay plate was covered with aluminum foil to protect it from light and shaken for 30 min at room temperature. Each assay plate was read in a Perkin Elmer TopCount NXT instrument. The data from the TopCount instrument was transferred to GraphPad Prism software. The software performed a non-linear regression (log(agonist) vs response-Variable slope (four parameter)). EC50 values were calculated by the software and reported in pM.

Compound | IC50 [1] [nM] | EC50 [2] [pM]
CC[C@H](C)[C@H](NC(=O)[C@H](CC(C)C)NC(=O)[C@H](Cc1c[nH]c2ccccc12)NC(=O)[C@H](CCC(N)=O)NC(=O)[C@@H](NC(=O)[C@H](Cc1ccccc1)NC(=O)[C@H](CC(=O)O)NC(=O)[C@H](CCC(N)=O)NC(=O)[C@H](C)NC(=O)[C@H](CCCNC(=N)N)NC(=O)[C@H](CCCNC(=N)N)NC(=O)[C@H](C)NC(=O)[C@H](CC(=O)O)NC(=O)[C@H](CC(C)C)NC(=O)[C@H](Cc1ccc(O)cc1)NC(=O)[C@H](CCCCN)NC(=O)[C@H](CO)NC(=O)[C@@H](NC(=O)[C@H](CC(=O)O)NC(=O)[C@H](CO)NC(=O)[C@@H](NC(=O)[C@H](Cc1ccccc1)NC(=O)[C@@H](NC(=O)CNC(=O)[C@H](CCC(N)=O)NC(=O)C(C)(C)NC(=O)[C@@H](N)Cc1c[nH]cn1)[C@@H](C)O)[C@@H](C)O)C(C)C)C(C)C)C(=O)N[C@@H](CCCCNC(=O)CC[C@H](NC(=O)COCCOCCNC(=O)COCCOCCNC(=O)CC[C@H](NC(=O)CC[C@H](NC(=O)CCCCCCCCCCCCCCCCC(=O)O)C(=O)O)C(=O)O)C(=O)O)C(=O)N[C@H](C(N)=O)[C@@H](C)O [Chem. 39, N^ε28-[(4S)-4-carboxy-4-[[2-[2-[2-[[2-[2-[2-[[(4S)-4-carboxy-4-[[(4S)-4-carboxy-4-(17-carboxyheptadecanoylamino)butanoyl]amino]butanoyl]amino]ethoxy]ethoxy]acetyl]amino]ethoxy]ethoxy]acetyl]amino]butanoyl]-[Aib2,Val10,Ala16,Ile27,Lys28]-Glucagon amide] (H-H[Aib]QGTFTSDVSKYLDARRAQDFVQWLIK([γGlu-AEEA-AEEA-γGlu-γGlu-C18 diacid])T-NH2; N-terminus assumed) | 0.1 | –
CC[C@H](C)[C@H](NC(=O)[C@H](CC(C)C)NC(=O)[C@H](Cc1c[nH]c2ccccc12)NC(=O)[C@H](CCC(N)=O)NC(=O)[C@@H](NC(=O)[C@H](Cc1ccccc1)NC(=O)[C@H](CC(=O)O)NC(=O)[C@H](CCC(N)=O)NC(=O)[C@H](C)NC(=O)[C@H](CCCNC(=N)N)NC(=O)[C@H](CCCNC(=N)N)NC(=O)[C@@H](NC(=O)[C@H](CC(=O)O)NC(=O)[C@H](CC(C)C)NC(=O)[C@H](Cc1ccc(O)cc1)NC(=O)[C@H](CCCCN)NC(=O)[C@H](CO)NC(=O)[C@H](CC(C)C)NC(=O)[C@H](CC(=O)O)NC(=O)[C@H](CO)NC(=O)[C@@H](NC(=O)[C@H](Cc1ccccc1)NC(=O)[C@@H](NC(=O)CNC(=O)[C@H](CCC(N)=O)NC(=O)C(C)(C)NC(=O)[C@@H](N)Cc1c[nH]cn1)[C@@H](C)O)[C@@H](C)O)C(C)C)C(C)C)C(=O)N[C@@H](CCCCNC(=O)CC[C@H](NC(=O)COCCOCCNC(=O)COCCOCCNC(=O)CC[C@H](NC(=O)CC[C@H](NC(=O)CCCCCCCCCCCCCCCCC(=O)O)C(=O)O)C(=O)O)C(=O)O)C(=O)N[C@H](C(N)=O)[C@@H](C)O [Chem. 40, N^ε28-[(4S)-4-carboxy-4-[[2-[2-[2-[[2-[2-[2-[[(4S)-4-carboxy-4-[[(4S)-4-carboxy-4-(17-carboxyheptadecanoylamino)butanoyl]amino]butanoyl]amino]ethoxy]ethoxy]acetyl]amino]ethoxy]ethoxy]acetyl]amino]butanoyl]-[Aib2,Leu10,Val16,Ile27,Lys28]-Glucagon amide] (H-H[Aib]QGTFTSDLSKYLDVRRAQDFVQWLIK([γGlu-AEEA-AEEA-γGlu-γGlu-C18 diacid])T-NH2; N-terminus assumed) | – | 3
